Legend:
Assay type in all cases: cell-based
[1] = target: T1, Solute carrier family 22 member 2 (Homo sapiens, UniProt O15244); experiment: Inhibition of human OCT2-mediated ASP+ uptake expressed in HEK293 cells after 3 mins by fluorescence assay
T1 sequence (O15244 whole entry): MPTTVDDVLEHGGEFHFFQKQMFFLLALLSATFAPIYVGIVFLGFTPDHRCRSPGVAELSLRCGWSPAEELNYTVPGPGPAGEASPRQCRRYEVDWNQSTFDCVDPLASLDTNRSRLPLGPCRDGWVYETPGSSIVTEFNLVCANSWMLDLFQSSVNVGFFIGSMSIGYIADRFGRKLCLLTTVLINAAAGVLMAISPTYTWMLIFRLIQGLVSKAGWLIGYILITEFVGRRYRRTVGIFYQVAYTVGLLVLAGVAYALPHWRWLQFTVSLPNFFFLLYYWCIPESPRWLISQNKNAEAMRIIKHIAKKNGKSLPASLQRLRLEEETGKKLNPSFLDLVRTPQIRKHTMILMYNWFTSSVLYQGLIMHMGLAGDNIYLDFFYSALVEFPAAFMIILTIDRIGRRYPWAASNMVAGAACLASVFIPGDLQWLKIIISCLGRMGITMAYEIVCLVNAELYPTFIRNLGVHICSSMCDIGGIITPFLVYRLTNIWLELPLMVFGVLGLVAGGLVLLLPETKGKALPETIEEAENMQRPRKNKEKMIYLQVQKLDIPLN

[2] = target: T2, Multidrug and toxin extrusion protein 1 (Homo sapiens, UniProt Q96FL8); experiment: Inhibition of human MATE1-mediated ASP+ uptake expressed in HEK293 cells after 1.5 mins by fluorescence assay
T2 sequence (Q96FL8 whole entry): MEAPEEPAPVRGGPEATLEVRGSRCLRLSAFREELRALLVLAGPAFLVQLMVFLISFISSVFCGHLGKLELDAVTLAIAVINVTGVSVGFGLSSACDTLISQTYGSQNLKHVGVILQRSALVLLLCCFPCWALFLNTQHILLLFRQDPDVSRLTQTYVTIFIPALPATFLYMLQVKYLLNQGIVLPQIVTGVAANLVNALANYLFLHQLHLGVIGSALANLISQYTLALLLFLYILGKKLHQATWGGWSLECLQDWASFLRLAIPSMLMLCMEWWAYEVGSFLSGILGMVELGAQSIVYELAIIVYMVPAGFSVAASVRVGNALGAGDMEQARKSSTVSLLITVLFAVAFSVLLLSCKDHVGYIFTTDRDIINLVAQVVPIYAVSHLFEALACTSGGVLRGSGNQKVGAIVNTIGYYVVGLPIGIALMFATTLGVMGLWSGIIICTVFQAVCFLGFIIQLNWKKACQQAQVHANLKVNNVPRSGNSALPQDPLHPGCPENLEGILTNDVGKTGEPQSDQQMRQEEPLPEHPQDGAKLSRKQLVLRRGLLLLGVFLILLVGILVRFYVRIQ

[3] = target: T3, Multidrug and toxin extrusion protein 2 (Homo sapiens, UniProt Q86VL8); experiment: Inhibition of human MATE2K-mediated ASP+ uptake expressed in HEK293 cells after 1.5 mins by fluorescence assay
T3 sequence (Q86VL8 whole entry): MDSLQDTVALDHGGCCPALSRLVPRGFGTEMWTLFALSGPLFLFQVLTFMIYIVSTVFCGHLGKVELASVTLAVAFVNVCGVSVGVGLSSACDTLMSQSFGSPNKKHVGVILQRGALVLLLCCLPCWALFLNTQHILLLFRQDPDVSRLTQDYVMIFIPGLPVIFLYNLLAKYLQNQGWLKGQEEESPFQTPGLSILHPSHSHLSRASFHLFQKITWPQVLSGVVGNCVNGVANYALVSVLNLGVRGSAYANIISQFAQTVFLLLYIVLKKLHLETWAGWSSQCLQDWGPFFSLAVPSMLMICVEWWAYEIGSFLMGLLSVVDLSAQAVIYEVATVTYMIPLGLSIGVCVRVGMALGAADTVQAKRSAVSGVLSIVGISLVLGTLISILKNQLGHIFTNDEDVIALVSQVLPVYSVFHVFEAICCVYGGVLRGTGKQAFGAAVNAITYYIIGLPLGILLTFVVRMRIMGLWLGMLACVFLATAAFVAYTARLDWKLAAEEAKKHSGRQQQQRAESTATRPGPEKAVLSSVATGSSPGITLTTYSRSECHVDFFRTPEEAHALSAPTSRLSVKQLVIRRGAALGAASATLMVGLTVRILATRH

[4] = target: T2, Multidrug and toxin extrusion protein 1; experiment: (§1) Inhibition of human MATE1-mediated ASP+ uptake expressed in HEK293 cells at 20 uM after 1.5 mins by fluorescence assay; settings: hek293, […], 20 µM
[5] = target: T4, MATE1 (multidrug and toxin extrusion protein 1) (Homo sapiens, UniProt Q96FL8); experiment: as §1; settings: HEK293 cells expressing human MATE1, probe ASP+
T4 sequence (Q96FL8 whole entry): T2 sequence (Q96FL8 whole entry)

| SMILES | IC50 [1] [µM] | IC50 [2] [µM] | IC50 [3] [µM] | INH [4] [%] | inhibition at […], 20 µM [5] [%] |
| --- | --- | --- | --- | --- | --- |
| CC[C@@]1(O)C(=O)OCc2c1cc1n(c2=O)Cc2cc3c(CN(C)C)c(O)ccc3nc2-1 [TOPOTECAN] | 61 | 1.3 | 8.6 | 50 | – |
| CN1C2CCCC1CC(NC(=O)c1nn(C)c3ccccc13)C2 (stereo not given) [GRANISETRON] | 4.3 | – | 311 | 67 | – |
| COc1cc2nc(N3CCN(C(=O)c4ccco4)CC3)nc(N)c2cc1OC [PRAZOSIN] | – | – | 38.4 | – | – |
| CC[C@H]1OC(=O)[C@H](C)[C@@H](O[C@H]2C[C@@](C)(OC)[C@@H](O)[C@H](C)O2)[C@H](C)[C@@H](O[C@@H]2O[C@H](C)C[C@H](N(C)C)[C@H]2O)[C@](C)(O)C[C@@H](C)C(=O)[C@H](C)[C@@H](O)[C@]1(C)O [ERYTHROMYCIN] | – | > 500 | – | – | – |
| CC(=O)O[C@H]1C[C@@H]2CC[C@@H]3[C@H](CC[C@@]4(C)[C@H]3C[C@H]([N+]3(C)CCCCC3)[C@@H]4OC(C)=O)[C@@]2(C)C[C@@H]1N1CCCCC1.[Br-] [VECURONIUM BROMIDE] | 3.5 | 1.9 | 25.2 | 85 | – |
| C#C[C@]1(O)CC[C@H]2[C@@H]3CCc4cc(O)ccc4[C@H]3CC[C@@]21C [ETHINYL ESTRADIOL] | 2.2 | 21.1 | 20.2 | 60 | – |
| c1ccc2[nH]c(-c3cscn3)nc2c1 [THIABENDAZOLE] | – | > 500 | – | – | 55 |
| CNS(=O)(=O)Cc1ccc2[nH]cc(CCN(C)C)c2c1 | – | 6.7 | – | – | 7 |
| O=C1CC2(CCCC2)CC(=O)N1CCCCN1CCN(c2ncccn2)CC1 [BUSPIRONE] | 12 | – | 46 | – | – |
| Clc1cccc(Cl)c1N=C1NCCN1 [CLONIDINE] | – | 33.3 | – | – | 1 |
| COc1cc2c3cc1Oc1cc(ccc1O)C[C@@H]1c4c(cc(OC)c(O)c4Oc4ccc(cc4)C[C@@H]3N(C)CC2)CC[N+]1(C)C [TUBOCURARINE] | 78.8 | 9.4 | 55.5 | 95 | – |
| CCCCc1nc(Cl)c(CO)n1Cc1ccc(-c2ccccc2-c2nn[nH]n2)cc1 [LOSARTAN] | – | – | – | – | 12 |
| CCCc1nc2c(C)cc(-c3nc4ccccc4n3C)cc2n1Cc1ccc(-c2ccccc2C(=O)O)cc1 | – | 17.9 | – | – | 38 |
| COc1cc(C(=O)NS(=O)(=O)c2ccccc2C)ccc1Cc1cn(C)c2ccc(NC(=O)OC3CCCC3)cc12 [ZAFIRLUKAST] | 9.7 | – | 7.6 | 52 | – |
| CC(=O)S[C@@H]1CC2=CC(=O)CC[C@]2(C)[C@H]2CC[C@@]3(C)[C@@H](CC[C@@]34CCC(=O)O4)[C@H]12 [SPIRONOLACTONE] | – | 18.6 | – | – | 27 |
| O=C(O)c1cccnc1 [NIACIN] | – | – | – | – | 54 |
| NC1=NCC2c3ccccc3Cc3ccccc3N12 (stereo not given) [EPINASTINE] | 4.3 | 1.1 | 29.8 | 97 | – |
| CCCCC1=NC2(CCCC2)C(=O)N1Cc1ccc(-c2ccccc2-c2nnn[nH]2)cc1 [IRBESARTAN] | – | – | – | – | 15 |

| SMILES | IC50 [1] [µM] | IC50 [2] [µM] | IC50 [3] [µM] | INH [4] [%] | inhibition at […], 20 µM [5] [%] |
| --- | --- | --- | --- | --- | --- |
| O=c1[nH]c2ccccc2n1CCCN1CCC(n2c(=O)[nH]c3cc(Cl)ccc32)CC1 [DOMPERIDONE] | 7.9 | – | 14.8 | 66 | – |
| CN1C[C@H](C(=O)N[C@]2(C)O[C@@]3(O)[C@@H]4CCCN4C(=O)[C@H](Cc4ccccc4)N3C2=O)C[C@@H]2c3cccc4[nH]cc(c34)C[C@H]21 [DIHYDROERGOTAMINE] | 49.9 | 2.8 | 12.6 | 72 | – |
| CC(N)C12CC3CC(CC(C3)C1)C2 (stereo not given) [RIMANTADINE] | 4.4 | 7.3 | 288 | 74 | – |
| CCOC(=O)c1ccc(OC(=O)CCCCCNC(=N)N)cc1 [GABEXATE] | 0.9 | 0.5 | 10.8 | – | 96 |
| [H]/N=C(/N)c1ccc(NCc2nc3cc(C(=O)N(CCC(=O)O)c4ccccn4)ccc3n2C)cc1 [DABIGATRAN] | 4.7 | 8.1 | 25.3 | – | – |
| CNC(=C[N+](=O)[O-])NCCSCc1ccc(CN(C)C)o1 [RANITIDINE] | – | – | – | – | 29 |
| COc1ccc2c(c1)c(CC(=O)O)c(C)n2C(=O)c1ccc(Cl)cc1 [INDOMETHACIN] | – | – | – | – | 6 |
| O=c1[nH]c2ccccc2n1C1CCN(CCCC(c2ccc(F)cc2)c2ccc(F)cc2)CC1 [PIMOZIDE] | 34.2 | – | > 500 | – | – |
| C[C@@H]1C[C@H]2[C@@H]3CCC4=CC(=O)C=C[C@]4(C)[C@@]3(F)[C@@H](O)C[C@]2(C)[C@@]1(O)C(=O)CO [DEXAMETHASONE] | – | > 500 | – | – | 30 |
| CN(C)C(=O)COC(=O)Cc1ccc(OC(=O)c2ccc(NC(=N)N)cc2)cc1 [CAMOSTAT] | 16.5 | – | 12.7 | 77 | – |
| CCOc1ccc(NC(C)=O)cc1 [PHENACETIN] | – | – | – | – | 53 |
| COc1ccc(CCN2CCC(Nc3nc4ccccc4n3Cc3ccc(F)cc3)CC2)cc1 [ASTEMIZOLE] | – | 26.4 | – | – | 34 |
| C=C[C@H]1C[N@@]2CC[C@H]1C[C@@H]2[C@@H](O)c1ccnc2ccc(OC)cc12 [QUINIDINE] | – | – | – | – | 28 |
| Cc1cc(C2CCCCC2)n(O)c(=O)c1 [CICLOPIROX] | – | > 500 | – | – | 52 |
| C[C@]12CCC(=O)C=C1CC[C@@H]1[C@@H]2C(=O)C[C@@]2(C)[C@H]1CC[C@]2(O)C(=O)CO [CORTISONE] | – | – | – | – | 10 |
| Nc1ncn([C@@H]2O[C@H](CO)[C@@H](O)[C@H]2O)c(=O)n1 [AZACITIDINE] | – | – | – | – | 50 |
| CCOC(=O)[C@H](CCc1ccccc1)N[C@@H](C)C(=O)N1CCC[C@H]1C(=O)O | – | > 500 | – | – | 23 |

— ChEMBL document CHEMBL2311273, “Discovery of potent, selective multidrug and toxin extrusion transporter 1 (MATE1, SLC47A1) inhibitors through prescription drug profiling and computational modeling” (J Med Chem, 2013)
